The target in one assay is T1, CRF2R (Homo sapiens, UniProt Q13324).
T1 sequence (Q13324 1-411): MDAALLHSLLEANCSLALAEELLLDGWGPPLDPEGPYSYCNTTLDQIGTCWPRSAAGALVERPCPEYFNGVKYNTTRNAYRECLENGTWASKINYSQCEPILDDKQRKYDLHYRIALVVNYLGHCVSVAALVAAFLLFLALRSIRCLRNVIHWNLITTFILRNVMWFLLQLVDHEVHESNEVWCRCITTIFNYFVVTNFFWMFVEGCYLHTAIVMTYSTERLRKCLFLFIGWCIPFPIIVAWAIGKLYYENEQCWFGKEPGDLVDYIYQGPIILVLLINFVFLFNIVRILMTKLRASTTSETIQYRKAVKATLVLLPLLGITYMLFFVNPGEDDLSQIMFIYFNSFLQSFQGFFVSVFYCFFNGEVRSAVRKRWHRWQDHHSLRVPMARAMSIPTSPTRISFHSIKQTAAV
Kind of assay: CRF2R agonist activation (EC50 / Emax), called comparative CRF binding. The assay is classed as cell-based. As to conditions: for Emax: read-out: CRF2R Emax; for EC50: read-out: CRF2R EC50. Put shortly: (§1)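 Peptides are tested on cells bearing CRF1R or CRF2R, full length or as ligand-binding-domain constructs coupled to reporters or G proteins. Activation is scored by cAMP rise, measured in lysates or by CRE-reporter output, against vehicle control.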

The target of another assay is T2, CRF1R (Homo sapiens, UniProt P34998).
T2 sequence (P34998 24-415): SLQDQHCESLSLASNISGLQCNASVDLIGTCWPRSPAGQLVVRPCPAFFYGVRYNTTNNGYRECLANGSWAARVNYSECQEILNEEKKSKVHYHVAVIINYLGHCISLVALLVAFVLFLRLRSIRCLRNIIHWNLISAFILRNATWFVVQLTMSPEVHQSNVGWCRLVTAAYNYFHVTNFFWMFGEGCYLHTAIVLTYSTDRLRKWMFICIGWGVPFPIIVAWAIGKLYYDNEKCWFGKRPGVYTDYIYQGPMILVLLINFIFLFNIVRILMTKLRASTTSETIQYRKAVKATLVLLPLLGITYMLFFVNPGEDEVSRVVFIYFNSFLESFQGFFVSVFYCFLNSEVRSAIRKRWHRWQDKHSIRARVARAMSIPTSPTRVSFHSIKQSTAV
Kind of assay: CRF1R agonist activation (EC50 / Emax), called comparative CRF binding. It is filed as cell-based. Conditions: for Emax: read-out: CRF1R Emax; for EC50: read-out: CRF1R EC50. Put shortly: as §1

Structures are written as SMILES. Peptide text beside a SMILES is read from it.

In the case of `CC[C@H](C)[C@H](NC(=O)[C@H](C)NC(=O)[C@H](CC(N)=O)NC(=O)[C@H](CCC(N)=O)NC(=O)[C@H](CCC(=O)O)NC(=O)[C@H](C)NC(=O)[C@H](CCCNC(=N)N)NC(=O)[C@H](CCC(=O)O)NC(=O)[C@H](CCCNC(=N)N)NC(=O)[C@H](CCC(N)=O)NC(=O)[C@H](CO)NC(=O)[C@H](CCC(N)=O)NC(=O)[C@@H](NC(=O)[C@H](CCCNC(=N)N)NC(=O)[C@H](C)NC(=O)[C@H](CC(C)C)NC(=O)[C@H](CCC(=O)O)NC(=O)[C@H](CC(C)C)NC(=O)[C@H](CC(C)C)NC(=O)[C@@H](NC(=O)[C@H](CCCNC(=N)N)NC(=O)[C@H](CC(C)C)NC(=O)[C@H](CC(C)C)NC(=O)[C@H](Cc1ccccc1)NC(=O)[C@H](CC(C)C)NC(=O)[C@@H]1CCCN1C(=O)[C@H](CC(C)C)NC(=O)[C@H](CC(=O)O)NC(=O)[C@@H](NC(=O)[C@H](CO)NC(=O)[C@H](CC(C)C)NC(=O)[C@H](CO)NC(=O)[C@@H]1CCCN1C(=O)[C@H](CC(N)=O)NC(=O)[C@@H](N)CC(=O)O)[C@@H](C)CC)[C@@H](C)O)[C@@H](C)O)C(=O)N[C@H](C(=O)N[C@@H](Cc1ccccc1)C(=O)N[C@@H](C)C(=O)N[C@@H](CO)C(=O)N[C@H](C(N)=O)C(C)C)[C@@H](C)CC` [compound 178] (H-DNPSLSIDLPLFLLRTLLELARTQSQRERAEQNAIIFASV-NH2; N-terminus assumed), the figures for the Emax at CRF2R and at CRF1R were 96.5% and 55.7%, respectively.
As to `CC[C@H](C)[C@H](NC(=O)[C@H](C)NC(=O)[C@H](CC(N)=O)NC(=O)[C@H](CCC(N)=O)NC(=O)[C@H](CCC(=O)O)NC(=O)[C@H](C)NC(=O)[C@H](CCCNC(=N)N)NC(=O)[C@H](CCC(=O)O)NC(=O)[C@H](CCCNC(=N)N)NC(=O)[C@H](CCC(N)=O)NC(=O)[C@H](CO)NC(=O)[C@H](CCC(N)=O)NC(=O)[C@@H](NC(=O)[C@H](CCCNC(=N)N)NC(=O)[C@H](C)NC(=O)[C@H](CC(C)C)NC(=O)[C@H](CCC(=O)O)NC(=O)[C@H](CC(C)C)NC(=O)[C@H](CC(C)C)NC(=O)[C@@H](NC(=O)[C@H](CCCNC(=N)N)NC(=O)[C@H](CC(C)C)NC(=O)[C@H](CC(C)C)NC(=O)[C@H](Cc1c[nH]cn1)NC(=O)[C@H](CC(C)C)NC(=O)[C@@H]1CCCN1C(=O)[C@H](CC(C)C)NC(=O)[C@H](CC(=O)O)NC(=O)[C@@H](NC(=O)[C@H](CO)NC(=O)[C@H](CC(C)C)NC(=O)[C@H](CO)NC(=O)[C@@H]1CCCN1C(=O)[C@H](CC(N)=O)NC(=O)[C@@H](N)CC(=O)O)[C@@H](C)CC)[C@@H](C)O)[C@@H](C)O)C(=O)N[C@H](C(=O)N[C@@H](Cc1ccccc1)C(=O)N[C@@H](C)C(=O)N[C@@H](CO)C(=O)N[C@H](C(N)=O)C(C)C)[C@@H](C)CC` [compound 179] (H-DNPSLSIDLPLHLLRTLLELARTQSQRERAEQNAIIFASV-NH2; N-terminus assumed), the Emax – broadly, the size of the effect at its maximum, as opposed to the concentration needed – on CRF2R amounted to 92.5%; on CRF1R, 78.9%.
For `CC[C@H](C)[C@H](NC(=O)[C@H](C)NC(=O)[C@H](CC(N)=O)NC(=O)[C@H](CCC(N)=O)NC(=O)[C@H](CCC(=O)O)NC(=O)[C@H](C)NC(=O)[C@H](CCCNC(=N)N)NC(=O)[C@H](CCC(=O)O)NC(=O)[C@H](CCCNC(=N)N)NC(=O)[C@H](CCC(N)=O)NC(=O)[C@H](CO)NC(=O)[C@H](CCC(N)=O)NC(=O)[C@@H](NC(=O)[C@H](CCCNC(=N)N)NC(=O)[C@H](C)NC(=O)[C@H](CC(C)C)NC(=O)[C@H](CCC(=O)O)NC(=O)[C@H](CC(C)C)NC(=O)[C@H](CC(C)C)NC(=O)[C@@H](NC(=O)[C@H](CCCNC(=N)N)NC(=O)[C@H](CC(C)C)NC(=O)[C@H](CC(C)C)NC(=O)[C@H](CC(C)C)NC(=O)[C@H](Cc1ccccc1)NC(=O)[C@@H]1CCCN1C(=O)[C@H](CC(C)C)NC(=O)[C@H](CC(=O)O)NC(=O)[C@@H](NC(=O)[C@H](CO)NC(=O)[C@H](CC(C)C)NC(=O)[C@H](CO)NC(=O)[C@@H]1CCCN1C(=O)[C@H](CC(N)=O)NC(=O)[C@@H](N)CC(=O)O)[C@@H](C)CC)[C@@H](C)O)[C@@H](C)O)C(=O)N[C@H](C(=O)N[C@@H](Cc1ccccc1)C(=O)N[C@@H](C)C(=O)N[C@@H](CO)C(=O)N[C@H](C(N)=O)C(C)C)[C@@H](C)CC` [compound 180] (H-DNPSLSIDLPFLLLRTLLELARTQSQRERAEQNAIIFASV-NH2; N-terminus assumed), at CRF2R, the EC50 (usually the concentration at which the effect is half-maximal) worked out at 3.14 nM and the Emax amounted to 95.7%. In addition, at CRF1R, the concentration for a half-maximal effect (EC50) was found to be 125 nM and the Emax is 99.3%.
As to `CC[C@H](C)[C@H](NC(=O)[C@H](C)NC(=O)[C@H](CC(N)=O)NC(=O)[C@H](CCC(N)=O)NC(=O)[C@H](CCC(=O)O)NC(=O)[C@H](C)NC(=O)[C@H](CCCNC(=N)N)NC(=O)[C@H](CCC(=O)O)NC(=O)[C@H](CCCNC(=N)N)NC(=O)[C@H](CCC(N)=O)NC(=O)[C@H](CO)NC(=O)[C@H](CCC(N)=O)NC(=O)[C@@H](NC(=O)[C@H](CCCNC(=N)N)NC(=O)[C@H](C)NC(=O)[C@H](CC(C)C)NC(=O)[C@H](CCC(=O)O)NC(=O)[C@H](CC(C)C)NC(=O)[C@H](CC(C)C)NC(=O)[C@@H](NC(=O)[C@H](CCCNC(=N)N)NC(=O)[C@H](CC(C)C)NC(=O)[C@H](CC(C)C)NC(=O)[C@@H](NC(=O)[C@H](Cc1ccccc1)NC(=O)[C@@H]1CCCN1C(=O)[C@H](CC(C)C)NC(=O)[C@H](CC(=O)O)NC(=O)[C@@H](NC(=O)[C@H](CO)NC(=O)[C@H](CC(C)C)NC(=O)[C@H](CO)NC(=O)[C@@H]1CCCN1C(=O)[C@H](CC(N)=O)NC(=O)[C@@H](N)CC(=O)O)[C@@H](C)CC)[C@@H](C)CC)[C@@H](C)O)[C@@H](C)O)C(=O)N[C@H](C(=O)N[C@@H](Cc1ccccc1)C(=O)N[C@@H](C)C(=O)N[C@@H](CO)C(=O)N[C@H](C(N)=O)C(C)C)[C@@H](C)CC` [compound 181] (H-DNPSLSIDLPFILLRTLLELARTQSQRERAEQNAIIFASV-NH2; N-terminus assumed), the Emax at CRF2R was 97.8%; at CRF1R, 100%.
Consider `CC[C@H](C)[C@H](NC(=O)[C@H](C)NC(=O)[C@H](CC(N)=O)NC(=O)[C@H](CCC(N)=O)NC(=O)[C@H](CCC(=O)O)NC(=O)[C@H](C)NC(=O)[C@H](CCCNC(=N)N)NC(=O)[C@H](CCC(=O)O)NC(=O)[C@H](CCCNC(=N)N)NC(=O)[C@H](CCC(N)=O)NC(=O)[C@H](CO)NC(=O)[C@H](CCC(N)=O)NC(=O)[C@@H](NC(=O)[C@H](CCCNC(=N)N)NC(=O)[C@H](C)NC(=O)[C@H](CC(C)C)NC(=O)[C@H](CCC(=O)O)NC(=O)[C@H](CC(C)C)NC(=O)[C@H](CC(C)C)NC(=O)[C@@H](NC(=O)[C@H](CCCNC(=N)N)NC(=O)[C@H](CC(C)C)NC(=O)[C@H](CC(C)C)NC(=O)[C@H](CCC(N)=O)NC(=O)[C@H](Cc1ccccc1)NC(=O)[C@@H]1CCCN1C(=O)[C@H](CC(C)C)NC(=O)[C@H](CC(=O)O)NC(=O)[C@@H](NC(=O)[C@H](CO)NC(=O)[C@H](CC(C)C)NC(=O)[C@H](CO)NC(=O)[C@@H]1CCCN1C(=O)[C@H](CC(N)=O)NC(=O)[C@@H](N)CC(=O)O)[C@@H](C)CC)[C@@H](C)O)[C@@H](C)O)C(=O)N[C@H](C(=O)N[C@@H](Cc1ccccc1)C(=O)N[C@@H](C)C(=O)N[C@@H](CO)C(=O)N[C@H](C(N)=O)C(C)C)[C@@H](C)CC` [compound 182] (H-DNPSLSIDLPFQLLRTLLELARTQSQRERAEQNAIIFASV-NH2; N-terminus assumed), for which, at CRF2R, the EC50 is 7.21 nM and the Emax was found to be 91.4%. At CRF1R, the EC50 is 409 nM and the Emax was 89.7%.
For the molecule `CC[C@H](C)[C@H](NC(=O)[C@H](C)NC(=O)[C@H](CC(N)=O)NC(=O)[C@H](CCC(N)=O)NC(=O)[C@H](CCC(=O)O)NC(=O)[C@H](C)NC(=O)[C@H](CCCNC(=N)N)NC(=O)[C@H](CCC(=O)O)NC(=O)[C@H](CCCNC(=N)N)NC(=O)[C@H](CCC(N)=O)NC(=O)[C@H](CO)NC(=O)[C@H](CCC(N)=O)NC(=O)[C@@H](NC(=O)[C@H](CCCNC(=N)N)NC(=O)[C@H](C)NC(=O)[C@H](CC(C)C)NC(=O)[C@H](CCC(=O)O)NC(=O)[C@H](CC(C)C)NC(=O)[C@H](CC(C)C)NC(=O)[C@@H](NC(=O)[C@H](CCCNC(=N)N)NC(=O)[C@H](CC(C)C)NC(=O)[C@H](CC(C)C)NC(=O)[C@H](Cc1ccc(O)cc1)NC(=O)[C@H](Cc1ccccc1)NC(=O)[C@@H]1CCCN1C(=O)[C@H](CC(C)C)NC(=O)[C@H](CC(=O)O)NC(=O)[C@@H](NC(=O)[C@H](CO)NC(=O)[C@H](CC(C)C)NC(=O)[C@H](CO)NC(=O)[C@@H]1CCCN1C(=O)[C@H](CC(N)=O)NC(=O)[C@@H](N)CC(=O)O)[C@@H](C)CC)[C@@H](C)O)[C@@H](C)O)C(=O)N[C@H](C(=O)N[C@@H](Cc1ccccc1)C(=O)N[C@@H](C)C(=O)N[C@@H](CO)C(=O)N[C@H](C(N)=O)C(C)C)[C@@H](C)CC` [compound 183] (H-DNPSLSIDLPFYLLRTLLELARTQSQRERAEQNAIIFASV-NH2; N-terminus assumed), the Emax was determined as 100% on CRF2R and 57.5% at CRF1R.

Values taken from patent US6936585B2, “Corticotropin releasing factor 2 receptor agonists” (priority 2002, dated 2005).
